Test results published in article PMC9395488, “First-in-human study of IM156, a novel potent biguanide oxidative phosphorylation (OXPHOS) inhibitor, in patients with advanced solid tumors” (Investigational New Drugs, 2022).
Entries after “also recorded” stand apart in the source; their conditions may differ.

How the values were obtained:
glioblastoma (GSC11) = test system: glioblastoma (GSC11); parameters: method as in ImmunoMet, 2018; details: glioblastoma animal model, control group 47 days; ref ImmunoMet, 2018; cited from earlier work
[1] = presence and absence of activated S9; ref ImmunoMet, 2018; cited from earlier work
[2] = major metabolic organs such as lung, liver, kidney; cited from earlier work
[3] = test system: purified complex I membrane from bovine heart; parameters: method as in ImmunoMet, 2018; details: ref ImmunoMet, 2018, read-out: mitochondrial OXPHOS inhibition IC50; cited from earlier work
beagle dogs = details: ref ImmunoMet, 2018, cited from earlier work
[4] = Plasma pharmacokinetics of IM156 in patients
Method: PK samples were also obtained on Cycle 1 Day 15 immediately prior to dosing and 2 h after dosing.
③ Method and schedule for administration:
IM156 will be administered in a fasted state (at least 2 hours after
and 1 hour before eating and drinking except water) except at
the single dose stage (described below).
In the single dose stage, IM156 will be administered with a high-
fast of at least 10 hours, subjects should eat a high-fat meal in
20 minutes starting 30 minutes prior to administration of IM156
with 240 mL of water. No food will be eaten for at least 4 hours
after the administration of IM156. Water is allowed as desired
except for one hour before and after the administration of IM156.
Phase 1b: advanced solid tumor or lymphoma
IM156 will be administered at the RP2D and schedule determined during
Phase 1a. The population(s) and dose and schedule of IM156 will be
defined in a protocol amendment.
Methodology This study is a Phase 1 clinical study to determine the MTD and RP2D of
IM156 as a single agent and to explore its safety, tolerability, PK
characteristics, exploratory markers, and preliminary efficacy.
The Phase 1 clinical study consists of two parts, Phase 1a and Phase 1b.
The Phase 1a is conducted to determine the MTD of IM156 as a single
agent. In addition, the safety, tolerability, preliminary efficacy, PK
characteristics, and exploratory markers of IM156 are evaluated in
patients with advanced solid tumors or lymphoma who have failed in the
standard therapies. Approximately 8 cohorts are planned in Phase 1a; the
number of cohorts and the dose and schedule of IM156 to be
administered at each dose levels will be determined by Safety Committee.
The Phase 1b is conducted to confirm the safety and tolerability, to
explore the preliminary efficacy, and to evaluate the exploratory markers
at the RP2D of IM156 in patients with advanced solid tumor or lymphoma.
Pharmacokinetic Evaluation
Pharmacokinetic evaluation on IM156 will be carried out at each dose level in all the patients
enrolled in the Phase 1a and Phase 1b study. Pharmacokinetic evaluation will be performed on
Day 1 and 15 (Day 15 is only for the Phase 1a study) of the first cycle (Cycle 1), and Day 1 of the
second cycle (Cycle 2). Day 1 Cycle 2 will be Day 29. On Day 1 of Cycles 1 and 2, patients may
be hospitalized in the ward where 24-hour monitoring is possible, and blood and urine will be
collected before and after IM156 adminstration for PK evaluation. The drug concentration will be
evaluated whenever analyses of patient samples are feasible during the clinical study. In PK
evaluation, area under the concentration-time curve (AUC) over the time interval from 0
extrapolated to infinity (AUCinf), AUC up to the last measurable concentration (AUC0–last),
maximum plasma drug concentration (Cmax), minimum plasma drug concentration (Cmin), time
taken to reach the maximum concentration (Tmax), terminal phase half life (T1/2), apparent total
clearance of the drug from plasma after oral administration (CL/F), accumulation ratio at steady
state, cumurative amount of unchanged drug excreted into the urine (Ae), renal clearance (CLr),
and so on will be determined and other PK parameters can be added, if necessary.

[5] = plasma, Cycle 1 Day 1, 100 mg oral, N = 3
[6] = plasma, Cycle 1 Day 1, 200 mg oral, N = 3
[7] = plasma, Cycle 1 Day 1, 400 mg oral, N = 3
[8] = plasma, Cycle 1 Day 1, 800 mg oral (both regimens combined), N = 6
[9] = plasma, Cycle 1 Day 1, 1200 mg oral (both regimens combined), N = 7
[10] = plasma, Day 27, cohort 1, 100 mg QOD, N = 2
[11] = plasma, Day 27, cohort 2, 200 mg QOD, N = 3
[12] = plasma, Day 27, cohort 3, 400 mg QOD, N = 3
[13] = plasma, Day 27, cohort 4, 800 mg QOD, N = 3
[14] = plasma, Day 27, cohort 5, 1200 mg QOD, N = 3
[15] = plasma, Day 27, cohort 6, 800 mg QD, N = 3
[16] = plasma, Day 27, cohort 7, 1200 mg QD, N = 2
[17] = plasma, Fed 1 (single dose with high-fat meal), 1200 mg oral, N = 3

For `NC(=Nc1ccc(OC(F)(F)F)cc1)N=C(N)N1CCCC1` [IM156], the median survival time (glioblastoma (GSC11)) is listed as 82 days, the “genotoxicity in two in vitro assays” value [1] is listed as “not genotoxic” and the “tissue concentrations compared to plasma” value [2] is listed as 30–80 fold. For the same compound, the IC50 [3] was 2000 nM, the tolerability (beagle dogs; beagle dogs, 20, 40, or 80 mg/kg/dose QOD oral gavage, 27 days) was “tolerated and did not result in morbidity/mortality” and the “highest non-severely toxic dose (HNSTD)” value (beagle dogs; beagle dogs, oral QOD over 27 days (14 doses), highest dose tested) was no less than 80 mg/kg. For the same compound, the “accumulation of plasma exposure at steady-state” value ([4]; 800 mg QD, Day 27 vs Day 1) was “modest accumulation”, the “maximum plasma exposure achieved” value ([4]; daily doses of 800 mg) was ~ 6 μM and the “dose proportionality of plasma exposure (AUC0-24, Cmax)” value ([4]; doses ≥ 200 mg) was “increased dose proportionally; also recorded: increased in a dose proportional manner; also recorded: dose proportionality”. For the same compound, the AUC0-24 [4, 5] was 482 ± 342 ng·h/mL, the Cmax [4, 5] was 38.7 ± 31.1 ng/mL and the Tmax [4, 5] was 6.67 ± 2.31 h. It also gave an AUC0-24 [4, 6] of 2980 ± 251 ng·h/mL, a Cmax [4, 6] of 189 ± 41.0 ng/mL and a Tmax [4, 6] of 4.67 ± 3.06 h. It also gave an AUC0-24 [4, 7] of 4380 ± 3010 ng·h/mL, a Cmax [4, 7] of 362 ± 131 ng/mL and a Tmax [4, 7] of 3.33 ± 1.15 h. It also gave an AUC0-24 [4, 8] of 7520 ± 3820 ng·h/mL, a Cmax [4, 8] of 829 ± 260 ng/mL and a Tmax [4, 8] of 2.25 ± 1.47 h. For the same compound, the AUC0-24 [4, 9] was 14,100 ± 6970 h*ng/mL, the Cmax [4, 9] was 1100 ± 616 ng/mL and the Tmax [4, 9] was 5.00 ± 3.00 h. The “Plasma AUC0-24” value ([4]; plasma, Day 1, cohort 4 only, 800 mg QOD) was 7250 ± 3960 ng·h/mL, the “Plasma AUC0-24” value ([4]; plasma, Day 1, cohort 5 only, 1200 mg QOD) was 10600 ± 4820 ng·h/mL and the “Plasma AUC0-24” value ([4]; plasma, Day 1, cohort 6 only, 800 mg QD) was 7790 ± 4530 ng·h/mL. The “Plasma AUC0-24” value ([4]; plasma, Day 1, cohort 7 only, 1200 mg QD) was 16800 ± 7720 ng·h/mL, the “mean Tmax values, range over doses” value ([4]; plasma, Day 27) was 1.2 to 4.0 h and the AUC0-24 [4, 10] was 1070 ± 330 ng·h/mL. It also gave an AUC0-48 [4, 10] of 1400 ± 383 ng·h/mL, an AUCINF [4, 10] of 1620 ± 473 ng·h/mL and a CL/F [4, 10] of 64.5 ± 18.8 L/h. It also gave a Cmax [4, 10] of 109 ± 54.8 ng/mL, a Tmax [4, 10] of 2.50 ± 2.12 h and a Vz/F [4, 10] of 1580 ± 291 L. The t1/2 [4, 10] was 17.3 ± 1.91 h, the AUC0-24 [4, 11] was 4200 ± 1140 ng·h/mL and the AUC0-48 [4, 11] was 6010 ± 1810 ng·h/mL. For the same compound, the AUCINF [4, 11] was 6180 ± 2220 ng·h/mL, the CL/F [4, 11] was 34.6 ± 12.4 L/h and the Cmax [4, 11] was 272 ± 43.8 ng/mL. It also gave a Tmax [4, 11] of 4.00 ± 0.00 h, a Vz/F [4, 11] of 837 ± 266 L and a t1/2 [4, 11] of 16.9 ± 0.752 h. The AUC0-24 [4, 12] was 7630 ± 5410 ng·h/mL, the AUC0-48 [4, 12] was 10,900 ± 8770 h*ng/mL and the CL/F [4, 12] was 67.8 ± 28.3 L/h. It also gave a Cmax [4, 12] of 530 ± 324 ng/mL, a Tmax [4, 12] of 4.00 ± 0.00 h and a Vz/F [4, 12] of 1160 ± 256 L. The t1/2 [4, 12] was 12.4 ± 2.56 h, the AUC0-24 [4, 13] was 12,900 ± 9470 h*ng/mL and the AUC0-48 [4, 13] was 18,200 ± 14,700 h*ng/mL. The AUCINF [4, 13] was 11,200 ± 5740 h*ng/mL, the CL/F [4, 13] was 82.4 ± 42.3 L/h and the Cmax [4, 13] was 949 ± 408 ng/mL. It also gave a Tmax [4, 13] of 1.17 ± 0.764 h, a Vz/F [4, 13] of 1650 ± 413 L and a t1/2 [4, 13] of 14.9 ± 4.20 h. The AUC0-24 [4, 14] was 21,800 ± 3680 h*ng/mL, the AUC0-48 [4, 14] was 29,800 ± 4700 h*ng/mL and the AUCINF [4, 14] was 33,100 ± 6120 h*ng/mL. For the same compound, the CL/F [4, 14] was 36.9 ± 6.83 L/h, the Cmax [4, 14] was 1580 ± 75.3 ng/mL and the Tmax [4, 14] was 3.33 ± 1.15 h. For the same compound, the Vz/F [4, 14] was 863 ± 312 L, the t1/2 [4, 14] was 15.9 ± 2.90 h and the AUC0-24 [4, 15] was 33,600 ± 9780 h*ng/mL. For the same compound, the Cmax [4, 15] was 1870 ± 485 ng/mL, the Tmax [4, 15] was 4.00 ± 0.00 h and the AUC0-24 [4, 16] was 36,300 ± 7550 h*ng/mL. For the same compound, the Cmax [4, 16] was 1980 ± 94.8 ng/mL, the Tmax [4, 16] was 4.00 ± 0.00 h and the AUC0-24 [4, 17] was 17,600 ± 12,800 h*ng/mL. The Cmax [4, 17] was 1220 ± 910 ng/mL, the Tmax [4, 17] was 6.83 ± 5.84 h and the “mean plasma half-life (t1/2) values, range” value ([4]; plasma, post dose administration) was 12—17 h.
